Results taken from patent US20230065416A1, “CLATHRIN-CHIMETIC ANTIBODY RECEPTOR CONSTRUCTS FOR IMMUNE CELL ACTIVATION THERAPY IN VIVO” (NANOTOMER, INC., priority 2020, published 2023).
Where two headings read alike, the source gives them in different places.

Legend:
B16 melanoma = test: Therapeutic study in C57BL/6 mice bearing B16 tumors; assay type: in vivo, mouse
From the text: (§1) BALB/c (female; 7-8 weeks) were subcutaneously implanted by 4T1 (100,000 cells; ATCC® CRL-2539™) on left 4th mammary glands. C57BL/6 (female; 7-8 weeks) were subcutaneously inoculated by B16 melanoma cells (100,000 cells; ATCC® CRL-6322™) or Lewis lung carcinoma line 1 cells (LLC1) (100,000 cells; ATCC® CRL-1642™) on right rear flanks. When the tumor size reached approximately 100 mm3, mice were randomly divided into three groups (n=6). […] The injection schedule was twice a week for two weeks. The tumor size and body weight of the mice were monitored during the treatment course. The length (l) and width (w) of the tumor were measured by a digital vernier caliper, and tumor volume (V) was defined as: […]V=l×w2/2. The tumor growth inhibition (TGI) was estimated by a following equation: TGI (%)=(Vc−Vt)/(Vc−Vi)×100, where Vc is the volume of the control tumor at the end of the study, Vt is the volume of drug-treated tumor at the end of the study, and Vi is the volume of tumor at the initial treatment.
Encouraged by the therapeutic effects for 4T1 tumor model, these protein-drug conjugates were further investigated for cancer therapy in a B16 (melanoma) or LLC1 (lung cancer)-bearing C57BL/6 mice. Drugs were now injected into mice having a tumor volume of approximately 100 mm3 according to the injection schedule identical to the 4T1 study.

breast cancer = settings: cited from earlier work
[1] = tested on: Lewis lung carcinoma line 1 (LLC1); test: Therapeutic study in C57BL/6 mice bearing LLC1 tumors; assay type: in vivo, mouse; settings: LLC1-bearing C57BL/6 mice; total dose of TAXOL® 32 μg/kg; n=6
Description: as §1, with “When” for “BALB/c (female; 7-8 weeks) were subcutaneously implanted by 4T1 (100,000 cells; ATCC® CRL-2539™) on left 4th mammary glands. C57BL/6 (female; 7-8 weeks) were subcutaneously inoculated by B16 melanoma cells (100,000 cells; ATCC® CRL-6322™) or Lewis lung carcinoma line 1 cells (LLC1) (100,000 cells; ATCC® CRL-1642™) on right rear flanks. When”

ovarian carcinoma = settings: cited from earlier work
4T1 murine breast cancer = test: Therapeutic study in BALB/c mice bearing 4T1 tumors; assay type: in vivo, mouse
Description: as §1, with “When” for “BALB/c (female; 7-8 weeks) were subcutaneously implanted by 4T1 (100,000 cells; ATCC® CRL-2539™) on left 4th mammary glands. C57BL/6 (female; 7-8 weeks) were subcutaneously inoculated by B16 melanoma cells (100,000 cells; ATCC® CRL-6322™) or Lewis lung carcinoma line 1 cells (LLC1) (100,000 cells; ATCC® CRL-1642™) on right rear flanks. When”
Before the diameter of tumor reached approximately 20 mm, the mice were euthanized, and lungs, livers, kidneys, hearts, pancreas, spleen, tumor, non-drain inguinal lymph nodes (far from tumor), and drain inguinal lymph nodes (located near tumor) were harvested and embedded in optimum cutting temperature (OCT) compound (TISSUE TEK™; SAKURA FINETEK™; Torrance, Calif.).
Representative photos for tumors from each group on day 27 post-implant are shown in top images of FIG. 14B. We evaluated the tumor growth inhibition (TGI) rate of each group (see the details in Method).

[2] = Trafficking of Protin-102 in a B6 mouse, imaging 24 hours post-injection; assay type: in vivo
Description: The clathrin heavy chains were labeled with CF680 dye, a cyanine-based dye that reacts with alkyne and is commonly used for labeling antibodies. The clathrin heavy chains were then injected into a C57BL/6 (B6) mouse, and imaging was performed 24 hours post-injection.

In the case of `CC(=O)O[C@H]1C(=O)[C@@]2(C)[C@H]([C@H](OC(=O)c3ccccc3)[C@]3(O)C[C@H](OC(=O)[C@H](O)[C@@H](NC(=O)c4ccccc4)c4ccccc4)C(C)=C1C3(C)C)[C@]1(OC(C)=O)CO[C@@H]1C[C@@H]2O` [TAXOL®, 5beta, 20-epoxy-1,2alpha, 4,7beta, 10beta, 13alpha-hexahydroxytax-11-en-9-one 4,10-diacetate 2-benzoate 13-ester with (2R,3S)—N-benzoyl-3-phenylisoserine], the TGI (B16 melanoma; B16) is given as 47.3±1.2%, the “tumor volume on the final day” value (B16 melanoma; B16-bearing C57BL/6 mice, total dose of TAXOL® 32 μg/kg, n=6) is given as 1.29±0.50 ×103 mm3 and the Response rate (breast cancer; regimen 135/3) is given as 22%. For the same compound, the “Survival, median” value (breast cancer; regimen 135/3) was 10.5 months, the “Time to Progression, median” value (breast cancer; regimen 135/3) was 3.0 months and the Response rate (breast cancer; regimen 175/3) was 28%. For the same compound, the “Survival, median” value (breast cancer; regimen 175/3) was 11.7 months, the “Time to Progression, median” value (breast cancer; regimen 175/3) was 4.2 months and the “tumor volume on the final day” value [1] was 1.21±0.31 ×103 mm3. The Response rate (ovarian carcinoma; regimen 135/24) was 13.2%, the “Survival, median” value (ovarian carcinoma; regimen 135/24) was 10.7 months and the “Time to Progression, median” value (ovarian carcinoma; regimen 135/24) was 2.8 months. For the same compound, the Response rate (ovarian carcinoma; regimen 155/3 as printed) was 15.2%, the “Time to Progression, median” value (ovarian carcinoma; regimen 155/3 as printed) was 3.1 months and the Response rate (ovarian carcinoma; regimen 175/3 (mg/m2 / infusion h)) was 14.6%. The “Survival, median” value (ovarian carcinoma; regimen 175/3) was 11.5 months, the “Time to Progression, median” value (ovarian carcinoma; regimen 175/3) was 4.4 months and the Response rate (ovarian carcinoma; regimen 175/4) was 21.7%. For the same compound, the “Survival, median” value (ovarian carcinoma; regimen 175/4) was 11.8 months, the “Time to Progression, median” value (ovarian carcinoma; regimen 175/4) was 4.2 months and the “final volume of the tumor” value (4T1 murine breast cancer; 4T1, day 27 post-implant, i.v. 2 times per week for 2 weeks, total dose of TAXOL® 32 μg/kg, n=6) was 1.70±0.42 ×103 mm3. The “tumor growth inhibition (TGI) rate” value (4T1 murine breast cancer; 4T1, end of study, identical dose of TAXOL® (8 μg/kg per injection), n=6) was 26.2±1.2% and the “nodules in the lung (metastasis of 4T1 tumor)” value (4T1 murine breast cancer; 4T1-bearing mice, day 27 post-implant) was “nodules were widely located in the lung”.

In the case of Protin-102: clathrin heavy chain, the “distribution among lymph nodes” value ([2]; compared with axillary and inguinal lymph nodes) is reported as “concentration in the mesenteric lymph nodes” and the “organ with the highest level of signal” value ([2]; labeled with CF680) is reported as “liver”.
